Reference: US20190046545A1, “COMPOSITIONS WITH SPECIFIC OLIGOSACCHARIDES TO PREVENT LATER IN LIFE OBESITY OR RELATED COMORBIDITIES, BY INCREASING COLONIC SCFA PRODUCTION AND/OR BY INCREASING GLP-1 SECRETION” (NESTEC S.A., priority 2016, published 2019)

Test system: BALB/cByJ CRL mice
Assay: SCFA production in caecum content of mice fed low-fiber diets enriched with 5% of tested fibers, measured by Gas-Liquid Chromatography
Assay type: in vivo
Conditions: 5 wt % fiber, versus low-fiber diet only
Text: 5 week old females BALB/cByJ CRL mice from Charles River were split into several groups and fed during 6 weeks based on the following protocol: • Week 1: low-fiber diet (composition is detailed in table 2) for all groups • Weeks 2 to 6: • Control group (group A): low-fiber diet (same as for week 1) • Test groups (groups B-D): low-fiber diet (same as for week 1) supplemented with 5 wt % of a tested fiber (5% of the total low fiber diet was replaced by 5% of a tested fiber)
The following fibers were tested: • BMOs=bovine milk oligosaccharides: an oligosaccharide mixture comprising 99.3% of GOS, 0.2% of N-acetylated oligosaccharide and 0.5% sialylated oligosaccharide was tested • PDX=polydextrose • Pectin
After 6 weeks, the animals of each group were sacrificed and the content from caecum was collected. The SOFA production were measured by Gas-Liquid Chromatography (GLC; amounts of SOFA in nmol/mg dry weight). The following SOFA were measured: propionate, butyrate, valerate and acetate.
The measure was made based on the following protocol: SOFA in an acid solution (pH 2.0 to 3.0) were separated on a GLC column coated with a polar stationary phase. […] After centrifugation, the sterile-filtered supernatant was ready for analysis by GLC. SOFA were measured simultaneously.
Median ratio values were calculated in order to compare the different fiber-enriched diets on SOFA production.

Substance	Caecal SCFA production (acetate, propionate, butyrate, valerate) compared with low-fiber diet
Pectin	less SOFA release of all kinds
polydextrose [PDX]	less SOFA release of all kinds
